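96-well plates; 48 h exposure; 5 concentrations. Endpoints by linear interpolation between flanking doses. Not reached: highest tested concentration assigned. GI50: concentration for 50% inhibition of growth.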 Activity calls are given as the source filed them. No stated cut-off is given here; in the data, active = GI50 up to about 1.1 µM and inactive = higher.
Tests used:
Assay in all cases: inhibition of tumour cell growth, NCI panel, 48 h
[1] = tested on: COLO 205
[2] = tested on: HL-60
[3] = tested on: M14
[4] = tested on: OVCAR-8
[5] = tested on: NCI-H460
[6] = tested on: 786-0
[7] = tested on: SF-295
[8] = tested on: U-251
[9] = tested on: MDA-MB-231
[10] = tested on: UACC-62
[11] = tested on: HCT-15
[12] = tested on: MDA-N
[13] = tested on: UACC-257
[14] = tested on: HOP-92
[15] = tested on: SR
[16] = tested on: T47D
[17] = tested on: HT-29
[18] = tested on: MDA-MB-435
[19] = tested on: SK-MEL-28
[20] = tested on: BT-549

Row | Compound | GI50 [1] | GI50 [2] | GI50 [3] | GI50 [4] | GI50 [5] | GI50 [6] | GI50 [7] | GI50 [8] | GI50 [9] | GI50 [10] | GI50 [11] [µM] | GI50 [12] | GI50 [13] | GI50 [14] | GI50 [15] | GI50 [16] | GI50 [17] | GI50 [18] | GI50 [19] | GI50 [20]
1 | CN(O)C(=O)c1ccc(OCc2cccc(Cl)c2)cc1 | 23.6 µM (inactive) | 6.12 µM (inactive) | 16.7 µM (inactive) | 19 µM (inactive) | 9.4 µM (inactive) | 12.4 µM (inactive) | 13.2 µM (inactive) | 15.2 µM (inactive) | > 81.1 µM (inactive) | 15.4 µM (inactive) | 3.52 | 35.8 µM (inactive) | 38.2 µM (inactive) | 58.5 µM (inactive) | 4.91 µM (inactive) | 43.1 µM (inactive) | 14.6 µM (inactive) | 23.6 µM (inactive) | 40.7 µM (inactive) | 22.8 µM (inactive)
2 | S=C1SSC2N=CC=CC12 (stereo not given) | > 100 µM (inactive) | 40.5 µM (inactive) | 85.5 µM (inactive) | > 100 µM (inactive) | 31.4 µM (inactive) | > 100 µM (inactive) | 84.9 µM (inactive) | > 100 µM (inactive) | > 100 µM (inactive) | 76.4 µM (inactive) | 57.8 | > 100 µM (inactive) | > 100 µM (inactive) | 74.1 µM (inactive) | 45.4 µM (inactive) | 93.5 µM (inactive) | > 100 µM (inactive) | 17.3 µM (inactive) | > 100 µM (inactive) | > 100 µM (inactive)
3 | O=C1CC2C(=O)C1C(C(=O)O)C2C(=O)O (stereo not given) | > 100 µM (inactive) | > 100 µM (inactive) | > 100 µM (inactive) | > 100 µM (inactive) | > 100 µM (inactive) | > 100 µM (inactive) | > 100 µM (inactive) | > 100 µM (inactive) | > 100 µM (inactive) | > 100 µM (inactive) | > 100 | > 100 µM (inactive) | > 100 µM (inactive) | > 100 µM (inactive) | > 100 µM (inactive) | > 100 µM (inactive) | > 100 µM (inactive) | > 100 µM (inactive) | > 100 µM (inactive) | > 100 µM (inactive)
4 | N#Cc1cccc(C2ON=C(c3ccc([N+](=O)[O-])cc3)N2C23CC4CC(CC(C4)C2)C3)c1 (stereo not given) | > 100 µM (inactive) | 8.69 µM (inactive) | 57.8 µM (inactive) | > 100 µM (inactive) | > 100 µM (inactive) | > 100 µM (inactive) | 79.8 µM (inactive) | > 100 µM (inactive) | 63.7 µM (inactive) | > 100 µM (inactive) | 66.8 | > 100 µM (inactive) | > 100 µM (inactive) | 69.2 µM (inactive) | 7.71 µM (inactive) | 17.3 µM (inactive) | > 100 µM (inactive) | > 100 µM (inactive) | > 100 µM (inactive) | 82.6 µM (inactive)
5 | CC(C)(C)c1ccc2c(c1)OCc1n[nH]c(n1)COc1cc(C(C)(C)C)ccc1OCCOCCO2 | 2.31 µM (inactive) | 4.35 µM (inactive) | 2.86 µM (inactive) | 3.79 µM (inactive) | 3.13 µM (inactive) | 4.45 µM (inactive) | 3.55 µM (inactive) | 2.8 µM (inactive) | 9.48 µM (inactive) | 2.88 µM (inactive) | 4.95 | 3.11 µM (inactive) | 2.65 µM (inactive) | 3.88 µM (inactive) | 3.09 µM (inactive) | 3.48 µM (inactive) | 3.01 µM (inactive) | 3.21 µM (inactive) | 2.7 µM (inactive) | 2.81 µM (inactive)
6 | O=C(/C=C/c1ccccc1)c1ccccc1 [CHALCONE] | > 10 µM (inactive) | 4.07 µM (inactive) | > 10 µM (inactive) | > 10 µM (inactive) | > 9.55 µM (inactive) | > 10 µM (inactive) | > 10 µM (inactive) | > 10 µM (inactive) | > 10 µM (inactive) | > 10 µM (inactive) | > 10 | > 10 µM (inactive) | > 10 µM (inactive) | > 10 µM (inactive) | > 6.58 µM (inactive) | > 10 µM (inactive) | 6.07 µM (inactive) | > 8.13 µM (inactive) | > 10 µM (inactive) | > 10 µM (inactive)

— ChEMBL document CHEMBL1201862, “PubChem BioAssay data set” (2004)
